The record followed here is patent publication US11434246B2, “EP4 antagonists” (Eisai R&D Management Co., Ltd., priority 2015, dated 2022).

The target in this assay is EP4 (Homo sapiens, UniProt P35408). The assay can be described thus: EP4 Antagonism by CRE-PLAP Reporter Assay (SE302 cells, PGE2-stimulated). Type of assay: cell-based. On the set-up: HEK293 cells express endogenous EP4; endogenous in cells; host or cells: SE302 (HEK293 clone with CRE-PLAP reporter). The note with it: SE302 (HEK293) cells, 3 ng/mL PGE2, overnight; single or multiple assay average values. An excerpt: PGE2 and [^3H]-labelled PGE2 were purchased from Cayman Chemical (Ann Arbor, Mich.) and Perkin Elmer (Waltham, Mass.), respectively. Mouse breast 4T1 cells (CRL-2539) were obtained from American Tissue Culture Collection. SE302 cell line is a clone of the HEK293 cells containing cAMP response element (CRE) promoter that when activated drives secretion of placental-like alkaline phosphatase (PLAP). HEK293 cells express endogenous EP4 and show induction of PLAP in response to PGE2 and EP4 agonists, but not EP1, 2 or 3 agonists (Chen Q, Muramoto K, Masaaki N, Ding Y, Yang H, Mackey M, Li W, Inoue Y, Ackermann K, Shrota H, Matsumoto I, Spyvee M, Schiller S, Sumida T, Gusovsky F, and Lamphier M. A novel antagonist of the prostaglandin E2 EP4 receptor inhibits Th1 differentiation and Th17 expansion and is orally active in arthritis models. British J Pharmacol, 2010, 160: 292-310). BalB/C female mice at 7-8 week age were purchased from Jackson Laboratory (Bar Harbor, Me.). Mice were maintained under specific pathogen-free conditions.
Sequence of EP4 (P35408 whole entry): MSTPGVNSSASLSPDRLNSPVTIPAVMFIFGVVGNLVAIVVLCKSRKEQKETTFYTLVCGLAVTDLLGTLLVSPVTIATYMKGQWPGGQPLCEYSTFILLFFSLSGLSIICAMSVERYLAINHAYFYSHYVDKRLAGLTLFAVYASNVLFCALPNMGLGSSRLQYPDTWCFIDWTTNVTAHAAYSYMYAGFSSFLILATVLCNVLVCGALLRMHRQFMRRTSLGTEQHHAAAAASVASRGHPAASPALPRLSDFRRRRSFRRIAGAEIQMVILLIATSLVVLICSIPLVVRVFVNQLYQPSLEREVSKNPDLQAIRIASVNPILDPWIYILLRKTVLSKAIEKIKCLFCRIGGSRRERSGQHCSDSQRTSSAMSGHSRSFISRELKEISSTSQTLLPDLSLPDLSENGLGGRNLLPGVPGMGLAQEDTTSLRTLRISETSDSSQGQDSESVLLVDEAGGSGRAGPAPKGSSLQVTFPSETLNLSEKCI
EP4 Antagonism by CRE-PLAP Reporter Assay: SE302 cells were maintained in DMEM/F12 (50:50) (MediaTech) supplemented with 10% FBS (Tissue Culture Biologicals) plus penicillin/streptomycin. When used for assays, cells were plated in a 96-well plate at 2×10^4 cells/100 μL/well in serum-free assay medium (DMEM/F12 supplemented with 0.1% BSA plus penicillin/streptomycin) and incubated for 4-6 h. Cells were then stimulated with 3 ng/mL of PGE2 in the presence or absence of various concentrations of test compound overnight, and PLAP activity was measured by mixing 15 μL of culture supernatants with 75 μL of Lumi-phos (Lumigen, Inc.) and 60 μL of assay buffer containing 8 mmol/L MgSO4 in 0.1 mol/L carbonate-bicarbonate buffer pH11 in a new 96-well black plate and incubated for 2 h at room temperature. The intensity of luminescence, which reflected the PLAP activity in the supernatant, was quantified with an Envision 2101 Multilabel Reader. Values obtained from DMSO treated samples in the presence of PGE2 were defined as 100% of control, whereas values obtained from DMSO treated samples in the absence of PGE2 were defined as 0% of control. % of control for compound treated samples was calculated as follows: (actual reading−0% of control)/(100% of control−0% of control)×100. IC50 value for each individual experiment was calculated using GraphPad Prism 6.02 (Lake Forest, Calif.) with % of control values.
Compounds of the present invention were assayed according to the methods as described above, and IC50 values, which may be single assay values or multiple assay average values, are summarized in Table 1. Compounds marked “ABS” show absolute stereochemistry.
For orientation: A reporter such as luciferase makes a cellular process visible.
Consider `C[C@H](NC(=O)c1c(C(F)(F)F)nn2c1N(Cc1cccc(C(F)(F)F)c1)CC2)c1ccc(C(=O)NC#N)cc1` [Compound 52, (S)—N-(1-(4-(cyanocarbamoyl)phenyl)ethyl)-6-(trifluoromethyl)-1-(3-(trifluoromethyl)benzyl)-2,3-dihydro-1H-imidazo[1,2-b]pyrazole-7-carboxamide], for which the IC50 stood at 0.07 nM. As for `C[C@H](NC(=O)c1c(C(F)(F)F)nn2c1N(Cc1cc(CCCF)cc(C(F)(F)F)c1)CC2)c1ccc(C(=O)O)cc1` [Compound 99, (S)-4-(1-(1-(3-(3-Fluoropropyl)-5-(trifluoromethyl)benzyl)-6-(trifluoromethyl)-2,3-dihydro-1H-imidazo[1,2-b]pyrazole-7-carboxamido)ethyl)benzoic Acid], the half-inhibitory concentration (IC50) stood at 11.6 nM. This IC50 is about 170-fold higher than that of the compound before.

As for `C[C@H](NC(=O)c1c(C(F)(F)F)nn2c1N(Cc1cccc(C(F)(F)F)c1)CC2)c1ccc(C(=O)NS(C)(=O)=O)cc1` [Compound 55, (S)—N-(1-(4-((methylsulfonyl)carbamoyl)phenyl)ethyl)-6-(trifluoromethyl)-1-(3-(trifluoromethyl)benzyl)-2,3-dihydro-1H-imidazo[1,2-b]pyrazole-7-carboxamide], the IC50 worked out at 39.3 nM. `C[C@H](NC(=O)c1c(C(F)(F)F)nn2c1N(Cc1ccc(N)cc1)CC2)c1ccc(C(=O)O)cc1` [Compound 73, (S)-4-(1-(1-(4-aminobenzyl)-6-(trifluoromethyl)-2,3-dihydro-1H-imidazo[1,2-b]pyrazole-7-carboxamido)ethyl)benzoic Acid] came in with an IC50 of 1.49 nM. Regarding `O=C(O)c1ccc(C2(NC(=O)c3c(C(F)(F)F)nn4c3N(Cc3ccc(C(F)(F)F)cc3)CC4)CC2)cc1` [Compound 29, 4-(1-(6-(trifluoromethyl)-1-(4-(trifluoromethyl)benzyl)-2,3-dihydro-1H-imidazo[1,2-b]pyrazole-7-carboxamido)cyclopropyl)benzoic Acid], 2.19 nM corresponded to half-maximal inhibition (IC50). `Cc1nn2c(c1C(=O)NC1(c3ccc(C(=O)O)cc3)CC1)N(Cc1ccc(C(F)(F)F)cc1)CC2` [Compound 28, 4-(1-(6-methyl-1-(4-(trifluoromethyl)benzyl)-2,3-dihydro-1H-imidazo[1,2-b]pyrazole-7-carboxamido)cyclopropyl)benzoic Acid]: the midpoint of inhibition, the IC50, lay at 8.68 nM. This IC50 lies about 4-fold higher than the previous one.

For the compound `C[C@H](NC(=O)c1c(C(F)(F)F)nn2c1N(Cc1ccccc1Cl)CCC2)c1ccc(C(=O)O)cc1` [Compound 61, (S)-4-(1-(4-(2-chlorobenzyl)-2-(trifluoromethyl)-4,5,6,7-tetrahydropyrazolo[1,5-a]pyrimidine-3-carboxamido)ethyl)benzoic Acid], the IC50 was 100 nM. The compound `Cc1cccc(CN2CCn3nc(C(F)(F)F)c(C(=O)N[C@@H](C)c4ccc(C(=O)O)cc4)c32)c1` [Compound 18, (S)-4-(1-(1-(3-methylbenzyl)-6-(trifluoromethyl)-2,3-dihydro-1H-imidazo[1,2-b]pyrazole-7-carboxamido)ethyl)benzoic Acid] gave an IC50 of 0.64 nM. In the case of `C[C@H](NC(=O)c1c(C(F)(F)F)nn2c1N(Cc1cccc(C(F)(F)F)c1)CC2)c1ccc(C(=O)O)cc1F` [Compound 23, (S)-3-fluoro-4-(1-(6-(trifluoromethyl)-1-(3-(trifluoromethyl)benzyl)-2,3-dihydro-1H-imidazo[1,2-b]pyrazole-7-carboxamido)ethyl)benzoic Acid], the 50% inhibitory concentration (IC50) is 0.41 nM. Compared with the last compound, the IC50 is about 1.6-fold lower. Turning to `C[C@H](NC(=O)c1c(C(F)(F)F)nn2c1N(Cc1cccc(CCl)c1)CC2)c1ccc(C(=O)O)cc1` [Compound 65, (S)-4-(1-(1-(3-(chloromethyl)benzyl)-6-(trifluoromethyl)-2,3-dihydro-1H-imidazo[1,2-b]pyrazole-7-carboxamido)ethyl)benzoic acid], the midpoint of inhibition, the IC50, lay at 0.93 nM. Against the preceding compound, the IC50 is about 2.3-fold higher. As for `C[C@H](NC(=O)c1c(C(F)(F)F)nn2c1N(c1ccc(Cl)cc1)CC2)c1ccc(C(=O)O)cc1` [Compound 50, (S)-4-(1-(1-(4-chlorophenyl)-6-(trifluoromethyl)-2,3-dihydro-1H-imidazo[1,2-b]pyrazole-7-carboxamido)ethyl)benzoic Acid], half-maximal inhibition (IC50) required 91.3 nM. Turning to `CSc1cc(CN2CCn3nc(C(F)(F)F)c(C(=O)N[C@@H](C)c4ccc(C(=O)O)cc4)c32)cc(C(F)(F)F)c1` [Compound 62, (S)-4-(1-(1-(3-(methylthio)-5-(trifluoromethyl)benzyl)-6-(trifluoromethyl)-2,3-dihydro-1H-imidazo[1,2-b]pyrazole-7-carboxamido)ethyl)benzoic Acid], the IC50 stood at 0.57 nM. In the case of `C[C@H](NC(=O)c1c(C(F)(F)F)nn2c1N(Cc1ccc(O)cc1)CC2)c1ccc(C(=O)O)cc1` [Compound 86, (S)-4-(1-(1-(4-hydroxybenzyl)-6-(trifluoromethyl)-2,3-dihydro-1H-imidazo[1,2-b]pyrazole-7-carboxamido)ethyl)benzoic Acid] it was 1.48 nM; in that of `O=C(O)c1ccc(C2(NC(=O)c3c(C(F)(F)F)nn4c3N(Cc3ccc(Cl)cc3)CC4)CC2)cc1` [Compound 30, 4-(1-(1-(4-chlorobenzyl)-6-(trifluoromethyl)-2,3-dihydro-1H-imidazo[1,2-b]pyrazole-7-carboxamido)cyclopropyl)benzoic Acid], 1.35 nM. `C[C@H](NC(=O)c1c(C(F)(F)F)nn2c1N(Cc1ccccc1C(F)(F)F)CC2)c1ccc(C(=O)O)cc1` [Compound 4, (S)-4-(1-(6-(trifluoromethyl)-1-(2-(trifluoromethyl)benzyl)-2,3-dihydro-1H-imidazo[1,2-b]pyrazole-7-carboxamido)ethyl)benzoic Acid]: the half-maximal inhibitory concentration (IC50) is 22.4 nM. Compound `C[C@H](NC(=O)c1c(C(F)(F)F)nn2c1N(Cc1ccccc1)CC2)c1ccc(C(=O)O)cc1` [Compound 70, (S)-4-(1-(1-benzyl-6-(trifluoromethyl)-2,3-dihydro-1H-imidazo[1,2-b]pyrazole-7-carboxamido)ethyl)benzoic acid] displayed a half-maximal inhibitory concentration (IC50) of 0.84 nM.

Compound `C[C@H](NC(=O)c1c(C(F)(F)F)nn2c1N(Cc1ccc(Cl)c(C(F)(F)F)c1)CC2)c1ccc(C(=O)O)cc1` [Compound 63, (S)-4-(1-(1-(4-chloro-3-(trifluoromethyl)benzyl)-6-(trifluoromethyl)-2,3-dihydro-1H-imidazo[1,2-b]pyrazole-7-carboxamido)ethyl)benzoic acid] came in with an IC50 of 1.3 nM. Compared with the last compound, the IC50 is about 1.5-fold higher.

With `C[C@H](NC(=O)c1c(C(F)(F)F)nn2c1N(Cc1cccc(C(F)(F)F)c1)CC2)c1ccc(CC(=O)O)cc1` [Compound 26, (S)-2-(4-(1-(6-(trifluoromethyl)-1-(3-(trifluoromethyl)benzyl)-2,3-dihydro-1H-imidazo[1,2-b]pyrazole-7-carboxamido)ethyl)phenyl)acetic Acid], the IC50 was determined as 3.54 nM. In the case of `C[C@H](NC(=O)c1c(C(F)(F)F)nn2c1N(Cc1cccc(N(C)C)c1)CC2)c1ccc(C(=O)O)cc1` [Compound 89, (S)-4-(1-(1-(3-(dimethylamino)benzyl)-6-(trifluoromethyl)-2,3-dihydro-1H-imidazo[1,2-b]pyrazole-7-carboxamido)ethyl)benzoic Acid] it was 1.57 nM; in that of `C[C@H](NC(=O)c1c(CO)nn2c1N(Cc1cccc(C(F)(F)F)c1)CC2)c1ccc(C(=O)O)cc1` [Compound 93, (S)-4-(1-(6-(Hydroxymethyl)-1-(3-(trifluoromethyl)benzyl)-2,3-dihydro-1H-imidazo[1,2-b]pyrazole-7-carboxamido)ethyl)benzoic Acid], 6.59 nM. `Cc1nn2c(c1C(=O)N[C@@H](C)c1ccc(C(=O)O)cc1)N(Cc1ccc(Cl)cc1)CC2` [Compound 32, (S)-4-(1-(1-(4-chlorobenzyl)-6-methyl-2,3-dihydro-1H-imidazo[1,2-b]pyrazole-7-carboxamido)ethyl)benzoic Acid] yielded a half-inhibitory concentration (IC50) of 4.23 nM. Consider `O=C(O)c1ccc([C@H](CO)NC(=O)c2c(C(F)(F)F)nn3c2N(Cc2cccc(C(F)(F)F)c2)CC3)cc1` [Compound 87, (R)-4-(2-hydroxy-1-(6-(trifluoromethyl)-1-(3-(trifluoromethyl)benzyl)-2,3-dihydro-1H-imidazo[1,2-b]pyrazole-7-carboxamido)ethyl)benzoic Acid], for which the half-inhibitory concentration (IC50) turned out to be 34.7 nM. Compared with the last compound, the IC50 is about 8.2-fold higher.

The term IC50 denotes the concentration at which inhibition is half-maximal. A low value points to greater potency in that assay.
